Test results published in US20050271676A1, “Inducing cellular immune responses to human immunodeficiency virus-1 using peptide and nucleic acid compositions” (Epimmune Inc., priority 1993, published 2005).
No end group written: not given here.

Tests used:
[1] = molecular target: T1, HLA-DRB1*0802 (DR8w2) (Homo sapiens, UniProt P01903+P01911, A100R/A103L/A169T/F76Y/H45Y/I96F/K41T/L162R/M171V/P40S/Q125H/Q178H/Q39Y/Q99D/R218S/R42G/S66Y/V115G/W38E); experiment: biochemical; type: binding
T1 construct: endogenous in cells

[2] = molecular target: T2, HLA-DRB1*0401 (DR4w4) (Homo sapiens, UniProt P01903+P01911, A100K/A169T/F76Y/I96L/K127E/L162R/M171V/N62H/P40V/Q125Y/R42H/S133A/S149N/S66Y/V115G/V209L/W38E); experiment: purified HLA class II binding assay, DRB1*0401 (DR4w4); conditions: for DR4w4 binding: HIV DR super motif peptides, unit not given
T2 construct: endogenous in cells; host or cells: Preiss

[3] = molecular target: T3, HLA-DRB1*0701 (DR7) (Homo sapiens, UniProt P01903+P01911, A100R/A102G/A103Q/D57E/D86V/E43K/F76Y/K127E/L162R/M171V/P40G/Q125H/Q99D/R33Q/R42Y/R54Q/S133A/S66F/T210M/V115G/Y107V/Y59L/Y89S); experiment: biochemical; type: binding
T3 construct: endogenous in cells; host or cells: Pitout

[4] = molecular target: HLA-DRB1*1302 (DR6w19) (Homo sapiens, UniProt P01903+P01911, A100E/A169T/K41T/L162R/M171V/P40S/Q125H/Q178H/Q39Y/Q99D/R42S/S66N/T262R/V115G/W38E/Y61H); experiment: purified HLA class II binding assay, DRB1*1302 (DR6w19); conditions: for DR6w19 binding: HIV DR super motif peptides, unit not given
[5] = molecular target: T4, HLA-DRB1*1101 (DR5w11) (Homo sapiens, UniProt P01903+P01911, A100R/A169T/A87E/I96F/K41T/L162R/M171V/P40S/Q125H/Q178H/Q39Y/Q99D/R42S/S66Y/T262R/V115G/W38E); experiment: biochemical; type: binding
T4 construct: endogenous in cells

[6] = molecular target: HLA-DRB1*0405 (DR4w15) (Homo sapiens, UniProt P01903+P01911, A100R/A169T/D86S/F76Y/I96L/K127E/L162R/M171V/N62H/P40V/Q125Y/R42H/S133A/S149N/S66Y/V115G/V209L/W38E); experiment: purified HLA class II binding assay, DRB1*0405 (DR4w15)
[7] = molecular target: T5, HLA-DRB1*1201 (DR5w12) (Homo sapiens, UniProt P01903+P01911, A100R/A169T/D57E/D86V/F55L/H45Y/K41T/L162R/M171V/P40S/Q125H/Q178H/Q39Y/Q99D/R42G/S66L/T262R/V114A/V67L/W38E/Y59H/Y61H/Y89S); experiment: purified HLA class II binding assay, DRB1*1201 (DR5w12); conditions: for DR5w12 binding: HIV DR super motif peptides, unit not given
T5 construct: endogenous in cells

[8] = molecular target: T6, HLA-DRB1*0901 (DR9) (Homo sapiens, UniProt P01903+P01911, A100R/A103E/D57H/D86V/F55Y/F60I/F76Y/I96F/K127E/L162R/M171V/P40D/Q125H/Q99R/R33Q/R42F/S133A/S66N/T210M/V115G/W38K/Y107V/Y59G/Y89S); experiment: biochemical; type: binding
T6 construct: endogenous in cells

[9] = molecular target: T7, HLA-DRB1*0301 (DR3) (Homo sapiens, UniProt P01903+P01911, A100K/A102G/A103R/A169T/F55Y/I96L/K41T/L162R/M171V/P40S/Q125H/Q178H/Q39Y/R42S/S66N/T106N/T262R/W38E/Y61H); experiment: purified HLA class II binding assay, DRB1*0301 (DR3), pH 4.5; conditions: for DR3 binding: HIV DR super motif peptides, unit not given
T7 construct: endogenous in cells; host or cells: MAT

[10] = molecular target: T8, HLA-DRB5*0101 (DR2w2β2) (Homo sapiens, UniProt P01903+Q30154); experiment: biochemical; type: binding
T8 construct: expressed in transfected cells

[11] = molecular target: HLA-A*3101 (Homo sapiens, UniProt P04439, A270S/D185E/E176V/E277Q/F33T/G231S/G80R/H175R/I121M/I218V/I322F/K168Q/L300P/L318F/M331R/P217A/Q94H/R138Q/T323A/T345S/T97I/V358M); experiment: purified HLA class I binding assay, A*3101
[12] = molecular target: T9, HLA-A*0301 (Homo sapiens, UniProt P04439); experiment: purified HLA class I binding assay, A*0301
T9 construct: endogenous in cells; host or cells: GM3107

[13] = molecular target: HLA-A*3301 (Homo sapiens, UniProt P04439, A270S/D185E/E176V/E277Q/E87N/F33T/G231S/H175R/I121M/I218V/I322F/K168Q/K210R/L300P/L318F/M331R/P217A/Q86R/Q94H/R138Q/T323A/T345S/T97I/V358M/Y195H); experiment: purified HLA class I binding assay, A*3301
[14] = molecular target: HLA-A*1101 (Homo sapiens, UniProt P04439, A114D/D185E/E176A/F33Y/L180Q/S129P/T187R); experiment: purified HLA class I binding assay, A*1101
[15] = molecular target: T10, HLA-DRB1*1501 (DR2w2β1) (Homo sapiens, UniProt P01903+P01911); experiment: purified HLA class II binding assay, DRB1*1501 (DR2w2β1); conditions: for DR2 wβ1 binding: HIV DR super motif peptides, unit not given
T10 construct: expressed in transfected cells

[16] = molecular target: HLA-A*0101 (Homo sapiens, UniProt P04439, A114D/A174V/A182V/D101N/D185E/E176A/E190D/L180R/Q94H/R68K/S129P/T187R/V100A/V91M/W191G); experiment: biochemical; type: binding
[17] = molecular target: HLA-B*5401 (Homo sapiens, UniProt P01889, A329T/C349S/D138N/D201E/E176V/E187T/E204Q/E69G/I76V/K202T/L119W/R155S/R180L/S121T/S35A/S48A/V127L/V306I/V36M/Y140L); experiment: biochemical
[18] = molecular target: HLA-A*6801 (Homo sapiens, UniProt P04439, A269V/D185E/E176V/E277Q/E87N/F33Y/G231S/I121M/I166T/I218V/L180W/L300P/L318F/N151K/P208A/P217A/Q86R/R169H/T345S); experiment: purified HLA class I binding assay, A*6801

T4 sequence (P01903 26-254, other chains not shown): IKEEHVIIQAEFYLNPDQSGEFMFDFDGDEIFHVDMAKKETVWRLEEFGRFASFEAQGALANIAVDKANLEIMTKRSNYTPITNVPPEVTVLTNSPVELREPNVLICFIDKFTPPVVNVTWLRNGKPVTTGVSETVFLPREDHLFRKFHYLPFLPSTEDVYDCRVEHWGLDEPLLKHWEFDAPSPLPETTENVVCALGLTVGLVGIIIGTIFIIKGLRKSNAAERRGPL
T2 sequence (P01903 26-254 partner, other chains not shown): as the sequence (P01903 26-254, other chains not shown) above
T7 sequence (P01903 26-254 partner, other chains not shown): as the sequence (P01903 26-254, other chains not shown) above

CC[C@H](C)[C@H](NC(=O)[C@H](C)NC(=O)[C@@H]1CCCN1C(=O)[C@@H](N)CO)C(=O)N[C@@H](Cc1ccccc1)C(=O)N[C@@H](CCC(N)=O)C(=O)N[C@@H](CO)C(=O)N[C@@H](CO)C(=O)N[C@@H](CCSC)C(=O)N[C@H](C(=O)N[C@@H](CCCCN)C(=O)N[C@H](C(=O)N[C@@H](CC(C)C)C(=O)N[C@@H](CCC(=O)O)C(=O)N1CCC[C@H]1C(=O)O)[C@@H](C)CC)[C@@H](C)O [Peptide 27.0344]
IC50 [1]: 3270 nM | IC50 [2]: 3570 nM | IC50 [3]: 68 nM | IC50 [4]: 13 nM | IC50 [5]: 741 nM | IC50 [6]: 109 nM | IC50 [7]: > 20000 nM | IC50 [8]: 33 nM | IC50 [9]: > 20000 nM

CC(C)C[C@H](NC(=O)[C@H](CCCCN)NC(=O)[C@@H](NC(=O)[C@H](CC(C)C)NC(=O)[C@@H]1CCCN1C(=O)[C@@H]1CCCN1C(=O)[C@@H](NC(=O)[C@H](CC(N)=O)NC(=O)[C@@H](NC(=O)[C@H](Cc1ccccc1)NC(=O)[C@H](CCC(=O)O)NC(=O)[C@@H](N)Cc1c[nH]c2ccccc12)C(C)C)[C@@H](C)O)C(C)C)C(=O)N[C@@H](Cc1c[nH]c2ccccc12)C(=O)N[C@@H](Cc1ccc(O)cc1)C(=O)N[C@@H](CCC(N)=O)C(=O)O [Peptide 27.0354]
IC50 [1]: 350 nM | IC50 [2]: 28 nM | IC50 [3]: 15 nM | IC50 [4]: 90 nM | IC50 [6]: 20 nM | IC50 [7]: 1360 nM | IC50 [8]: 39 nM | IC50 [10]: 2.1 nM

CC[C@H](C)[C@H](NC(=O)[C@H](C)N)C(=O)N[C@@H](Cc1ccccc1)C(=O)N[C@@H](CCC(N)=O)C(=O)N[C@@H](CO)C(=O)N[C@@H](CO)C(=O)N[C@@H](CCSC)C(=O)N[C@H](C(=O)N[C@@H](CCCCN)C(=O)O)[C@@H](C)O [Peptide 966.01]
IC50 [11]: 12000 nM | IC50 [12]: 10 nM | IC50 [13]: 96700 nM | IC50 [14]: 10 nM

CC[C@H](C)[C@H](NC(=O)CNC(=O)[C@H](CCCCN)NC(=O)[C@H](Cc1c[nH]cn1)NC(=O)[C@H](C)NC(=O)[C@@H]1CCCN1C(=O)[C@@H](NC(=O)[C@H](Cc1c[nH]c2ccccc12)NC(=O)[C@H](C)NC(=O)[C@H](CC(C)C)NC(=O)[C@H](Cc1ccc(O)cc1)NC(=O)[C@@H](NC(=O)[C@@H](N)CCCCN)C(C)C)C(C)C)C(=O)NCC(=O)NCC(=O)O [Peptide 1280.03]
IC50 [4]: 2500 nM | IC50 [5]: 71 nM | IC50 [7]: 12600 nM | IC50 [8]: 250 nM | IC50 [10]: 24 nM | IC50 [15]: 25 nM | IC50 [9]: > 20000 nM

ASGYIEAEVIPAFTG
DR8w2 binding [1]: −0.0003 | DR4w4 binding [2]: 0.2300 | DR7 binding [3]: 0.0710 | DR6w19 binding [4]: 0.0400 | DR5w11 binding [5]: 0.0020 | DR5w12 binding [7]: −0.0045 | DR9 binding [8]: 0.0320 | DR2w2β2 binding [10]: −0.0021 | DR2 wβ1 binding [15]: −0.0003 | DR3 binding [9]: −0.0043

EVNIVTDSQY [Peptide 1.0431]
IC50 [16]: 472 nM

HSNWRAMASDFNLPP [Peptide 27.0364]
IC50 [1]: 1960 nM | IC50 [2]: 11 nM | IC50 [3]: 472 nM | IC50 [4]: 4370 nM | IC50 [5]: 95 nM | IC50 [6]: 15 nM | IC50 [7]: > 20000 nM | IC50 [8]: 872 nM | IC50 [15]: > 20000 nM | IC50 [9]: > 20000 nM

ILKEVYIIGVY
A*0101 (binding information) [16]: 0.0017

IPIHYCAPA [1296.01]
IC50 [17]: 3.7 nM

KLAGRWPVK [1069.44]
IC50 [11]: 500 nM | IC50 [12]: 8.5 nM | IC50 [13]: 72500 nM | IC50 [18]: 80000 nM

LVAVIIVASGY
A*0101 (binding affinity ratio) [16]: 0.0390 | A*0101 (binding information) [16]: 0.0390

QHLLQLTVWGIKQLQ [Peptide 27.0297]
IC50 [1]: 907 nM | IC50 [3]: 44 nM | IC50 [4]: 350 nM | IC50 [10]: 690 nM | IC50 [15]: 21 nM | IC50 [9]: > 20000 nM

QKEPPFLWMG
A*0101 (binding affinity ratio) [16]: 0.0004

QKQITKIQNFRVYYR [Peptide 27.0377]
IC50 [1]: 75 nM | IC50 [3]: 25 nM | IC50 [4]: 25 nM | IC50 [5]: 53 nM | IC50 [6]: 49 nM | IC50 [7]: 124 nM | IC50 [8]: 577 nM | IC50 [10]: 80 nM | IC50 [15]: 3.4 nM | IC50 [9]: > 20000 nM

SPEVIFMFSALSEGA
DR8w2 binding [1]: 0.0130 | DR4w4 binding [2]: 0.1600 | DR7 binding [3]: −0.0007 | DR6w19 binding [4]: 0.0007 | DR5w11 binding [5]: 0.0075 | DR5w12 binding [7]: −0.0045 | DR9 binding [8]: 0.0130 | DR2w2β2 binding [10]: 0.0034 | DR2 wβ1 binding [15]: 0.0280 | DR3 binding [9]: −0.0043

TTLFCASDAK [1273.07]
IC50 [11]: 9470 nM | IC50 [12]: 120 nM | IC50 [13]: 14500 nM | IC50 [14]: 27.3 nM

VTVLDVGDAY [Peptide 1069.26]
IC50 [16]: 439 nM
